Literature values in patent publication US5858398A, “Microparticular pharmaceutical compositions” (Isomed Inc., priority 1996, dated 1999).

System: intestinal membranes

sn-1-acyl-3-glycerophosphorylcholine [lyso-PC]
concentrations inducing histopathological damage to intestinal membranes: 0.01-1 mM
